Experimental data published in paper PMC9822287, “The Fate and Intermediary Metabolism of Soyasapogenol in the Rat” (Molecules, 2022).
Like-named read-outs stand apart in the source and are kept apart here.

Key:
[1] = Pharmacokinetics of oral administration in rats (plasma); format: in vivo; conditions: rat; for concentration at 1 h / bioavailability / AUC(0-inf) / AUC(0-t) / CL/F / half-life / Cmax / Tmax: plasma; for concentration at 1 h: 1.0 h postadministration; for bioavailability: oral AUC(0-∞)/intravenous AUC(0-∞), read-out: Bioavailability (F); for AUC(0-t): mean n = 6; for CL/F: read-out: CLz/F (clearance) (converted); for half-life: read-out: T1/2z (biological half-life) (converted); for Cmax / Tmax: po; for Ratio of B/A in plasma level (AUC): ratio of soyasapogenol B to soyasapogenol A in plasma
Procedure: The experiments were performed according to Kamo et al. The rats were divided into three groups (n = 8). All rats were fasted for 14–15 h prior to soyasapogenol A or B administration. All rats were orally administered soyasapogenol A or B via direct stomach intubation.
Blood samples were collected from the tail vein at 0 (pre-dose), 0.25, 0.5, 1, 2, 4, 6, 8, and 24 h after administration. The sample volume was 200 μL. The samples were immediately transferred to a centrifuge tube and treated with a sodium citrate anticoagulant. This fraction was then centrifuged at 10,000 rpm for 10 min, and the upper plasma was collected and placed in a refrigerator at −80 °C for later use.
(§1) The soyasapogenol concentrations in the rat plasma solutions were determined according to the method published in [5]. At first, the plasma samples were thawed to 4 °C and transferred (20 to 100 μL) to an Eppendorf tube. After adding the same volume of 0.2 mol/L sodium acetate buffer to each sample, 3 µL aliquots of glucuronidase (Sigma; extracted from Helix pomatia, containing 95,600 units/mL glucuronidase and 1100 units/mL sulfatase) were added to analyze the glucuronyl- and sulfatide-conjugated forms of the soyasapogenols, and the mixture was incubated at 37 °C for 12 h. The samples were mixed thoroughly, and then they were centrifuged at 10,000 rpm for 15 min. The supernatant was blown with nitrogen gas until it was dry, and residual supernatant was dissolved with 1 mL methanol. Subsequently, after filtration, the samples were analyzed according to the method published in [5].
The bioavailability parameters were calculated by comparing AUCoral postadministration with AUCiv post-soyasapogenol I.V. injection:%Bioavailability = [(AUCoral) × Doseiv/(AUCiv) × Doseoral] × 100
The calculation formula is as follows: F = oral administration AUC(0-∞)/intravenous injection AUC(0-∞).

[2] = Pharmacokinetics of intravenous injection in rats (plasma); format: in vivo; conditions: rat, intravenous (I.V.); for AUC(0-inf) / Cmax / Tmax / AUC(0-t) / half-life: plasma; for AUC(0-t): mean n = 6; for half-life: iv, read-out: T1/2z (half-life) (converted)
Procedure: The rats’ dorsal foot veins were cannulated with a standard syringe needle to administer the soyasapogenol. As presented in Table 5, the dosages of soyasapogenol A were 10 mg/kg and 20 mg/kg, and the dosages of soyasapogenol B were 25 mg/kg and 50 mg/kg. Blood samples were collected from the tail vein just prior to soyasapogenol administration (0 h) and 0.03, 0.08, 0.25, 0.5, 1, 2, 4, 6, 8, and 24 h after soyasapogenol loading; blood soyasapogenol levels were measured immediately. The collected blood sample volume was approximately 200 μL, and the samples were subjected to the same sample pretreatment procedure as described below.
as §1

Caco-2 cell monolayer = system: Caco-2 cell monolayer; set-up: method as in PMID 24698352; conditions: cited from earlier work

Q: Which concentration at 1 h ([1]; oral, 10 mg/kg by gavage) does the source give for CC1(C)C[C@H]2C3=CC[C@@H]4[C@@]5(C)CC[C@H](O)[C@](C)(CO)[C@@H]5CC[C@@]4(C)[C@]3(C)CC[C@@]2(C)[C@H](O)[C@@H]1O [Soyasapogenol A] here?
A: The concentration at 1 h was 29000 ± 10000 ng/mL.

Q: What about the concentration at 1 h ([1]; oral, 20 mg/kg by gavage) of the same compound?
A: The concentration at 1 h was 7000 ± 6000 ng/mL.

Q: What about the bioavailability ([1]; 10 mg/kg) of the same compound?
A: Its bioavailability is 73.1%.

Q: And the bioavailability ([1]; 20 mg/kg)?
A: The bioavailability was 67.3%.

Q: And the AUC(0-inf) ([1]; oral (P.O.), 10 mg/kg)?
A: Its AUC(0-inf) is 50.7 µg·h/mL.

Q: And the AUC(0-t) ([1]; oral (P.O.), 10 mg/kg)?
A: The AUC(0-t) was 35.2 µg·h/mL.

Q: And the CL/F ([1]; oral (P.O.), 10 mg/kg)?
A: Its CL/F is 6.57 mL/min/kg.

Q: What about the half-life ([1]; oral (P.O.), 10 mg/kg) of the same compound?
A: The half-life was 2.55 h.

Q: And the AUC(0-inf) ([1]; oral (P.O.), 20 mg/kg)?
A: Its AUC(0-inf) is 95.5 µg·h/mL.

Q: And the AUC(0-t) ([1]; oral (P.O.), 20 mg/kg)?
A: The AUC(0-t) was 88.6 µg·h/mL.

Q: What about the CL/F ([1]; oral (P.O.), 20 mg/kg) of the same compound?
A: Its CL/F is 3.48 mL/min/kg.

Q: What about the half-life ([1]; oral (P.O.), 20 mg/kg) of the same compound?
A: Its half-life is 1.97 h.

Q: And the Cmax ([1]; 10 mg/kg, oral (P.O.), 10 mg/kg, read-out: Cmax (peak concentration))?
A: Its Cmax is 8590 ng/mL.

Q: What about the Tmax ([1]; 10 mg/kg, oral (P.O.), 10 mg/kg, read-out: Tmax (peak time)) of the same compound?
A: The Tmax was 2 h.

Q: What about the Cmax ([1]; 10 mg/kg, oral, at 1.0 h postadministration, printed as the 10 mg/kg dose (second mention), read-out: Cmax) of the same compound?
A: Its Cmax is 29000 ng/mL.

Q: And the Tmax ([1]; 10 mg/kg, oral, printed as the 10 mg/kg dose (second mention), read-out: time of maximum plasma concentration)?
A: Its Tmax is 1 h.

Q: And the Cmax ([1]; 20 mg/kg, oral (P.O.), 20 mg/kg, read-out: Cmax (peak concentration))?
A: The Cmax was 29000 ng/mL.

Q: And the Tmax ([1]; 20 mg/kg, oral (P.O.), 20 mg/kg, read-out: Tmax (peak time))?
A: Its Tmax is 1 h.

Q: What about the AUC(0-inf) ([2]; 10 mg/kg) of the same compound?
A: The AUC(0-inf) was 69.4 µg·h/mL.

Q: What about the Cmax ([2]; 10 mg/kg) of the same compound?
A: Its Cmax is 31700 ng/mL.

Q: What about the Tmax ([2]; 10 mg/kg) of the same compound?
A: The Tmax was 1.8 min.

Q: What about the AUC(0-t) ([2]; 10 mg/kg) of the same compound?
A: The AUC(0-t) was 56 µg·h/mL.

Q: And the AUC(0-inf) ([2]; 20 mg/kg)?
A: The AUC(0-inf) was 142 µg·h/mL.

Q: And the Cmax ([2]; 20 mg/kg)?
A: The Cmax was 102000 ng/mL.

Q: What about the Tmax ([2]; 20 mg/kg) of the same compound?
A: Its Tmax is 1.8 min.

Q: What about the AUC(0-t) ([2]; 20 mg/kg) of the same compound?
A: Its AUC(0-t) is 114 µg·h/mL.

Q: What about the CLz/F ([2]; 10 mg/kg) of the same compound?
A: Its CLz/F is 4.8 mL/min/kg.

Q: And the “T1/2z (half-life)” value ([2]; 10 mg/kg)?
A: The value was 3.535 h.

Q: And the CLz/F ([2]; 20 mg/kg)?
A: The CLz/F was 2.35 mL/min/kg.

Q: What about the “T1/2z (half-life)” value ([2]; 20 mg/kg) of the same compound?
A: The value was 3.475 h.

Q: What about the half-life ([2]; 10 mg/kg, 10 mg/kg) of the same compound?
A: Its half-life is 3.54 h.

Q: And the half-life ([2]; 20 mg/kg, 20 mg/kg)?
A: The half-life was 3.48 h.

Q: Which results are given for CC1(C)C[C@@H](O)[C@]2(C)CC[C@]3(C)C(=CC[C@@H]4[C@@]5(C)CC[C@H](O)[C@](C)(CO)[C@@H]5CC[C@]43C)[C@@H]2C1 [Soyasapogenol B]?
A: bioavailability ([1]; 25 mg/kg): 60.9%; bioavailability ([1]; 50 mg/kg): 69%; AUC(0-inf) ([1]; oral (P.O.), 25 mg/kg): 111 µg·h/mL; AUC(0-t) ([1]; oral (P.O.), 25 mg/kg): 96 µg·h/mL; CL/F ([1]; oral (P.O.), 25 mg/kg): 3.02 mL/min/kg; half-life ([1]; oral (P.O.), 25 mg/kg): 2.29 h; AUC(0-inf) ([1]; oral (P.O.), 50 mg/kg): 178 µg·h/mL; AUC(0-t) ([1]; oral (P.O.), 50 mg/kg): 157 µg·h/mL; CL/F ([1]; oral (P.O.), 50 mg/kg): 1.87 mL/min/kg; half-life ([1]; oral (P.O.), 50 mg/kg): 2.27 h; time needed to reach peak concentration ([1]; oral administration, dose not stated): 8 h; Ratio of B/A in plasma level (AUC) ([1]; oral, soyasapogenol B 25 mg/kg column): 2.17; Ratio of B/A in plasma level (AUC) ([1]; oral, soyasapogenol B 50 mg/kg column): 1.87; Cmax ([1]; 25 mg/kg, oral (P.O.), 25 mg/kg, read-out: Cmax (peak concentration)): 26400 ng/mL; Tmax ([1]; 25 mg/kg, oral (P.O.), 25 mg/kg, read-out: Tmax (peak time)): 2 h; Cmax ([1]; 50 mg/kg, oral (P.O.), 50 mg/kg, read-out: Cmax (peak concentration)): 40300 ng/mL; Tmax ([1]; 50 mg/kg, oral (P.O.), 50 mg/kg, read-out: Tmax (peak time)): 2 h; Tmax ([1]; oral administration, dose not distinguished, read-out: Tmax): 2 h; amount (%) that permeates into the basolateral side from the apical side (Caco-2 cell monolayer): much higher than that of soyasapogenol A; AUC(0-inf) ([2]; 25 mg/kg): 181 µg·h/mL; Cmax ([2]; 25 mg/kg): 43300 ng/mL; Tmax ([2]; 25 mg/kg): 1.8 min; AUC(0-t) ([2]; 25 mg/kg): 76.2 µg·h/mL; AUC(0-inf) ([2]; 50 mg/kg): 258 µg·h/mL; Cmax ([2]; 50 mg/kg): 66800 ng/mL; Tmax ([2]; 50 mg/kg): 1.8 min; AUC(0-t) ([2]; 50 mg/kg): 154 µg·h/mL; CLz/F ([2]; 25 mg/kg): 4.1 mL/min/kg; T1/2z (half-life) ([2]; 25 mg/kg): 5.138 h; CLz/F ([2]; 50 mg/kg): 1.28 mL/min/kg; T1/2z (half-life) ([2]; 50 mg/kg): 5.528 h; half-life ([2]; 25 mg/kg, 25 mg/kg): 5.14 h; half-life ([2]; 50 mg/kg, 50 mg/kg): 5.53 h
